Assays:
Type in all cases: in vivo
[1] = system: blackgrass (Alopecurus myosuroides); assay: Test C pre-/postemergence greenhouse test, plant response rating 0-100; conditions: Postemergence; for Plant response rating, Blackgrass: scale 0 to 100
Excerpt: (§1) Seeds of plant species selected from blackgrass (Alopecurus myosuroides), Italian ryegrass (Lolium multiflorum), winter wheat (Triticum aestivum), galium (catchweed bedstraw, Galium aparine), corn (Zea mays), large (Lg) crabgrass (Digitaria sanguinalis), giant foxtail (Setaria faberii), johnsongrass (Sorghum halepense), lambsquarters (Chenopodium album), morningglory (Ipomoea coccinea), yellow nutsedge (Cyperus esculentus), pigweed (Amaranthus retroflexus), ragweed (common ragweed, Ambrosia elatior), soybean (Glycine max), barnyardgrass (Echinochloa crus-galli), oilseed rape (Brassica napus), waterhemp (common waterhemp, Amaranthus rudis), and velvetleaf (Abutilon theophrasti) were planted into a blend of loam soil and sand and treated preemergence with test chemicals formulated in a non-phytotoxic solvent mixture which included a surfactant.
(§2) At the same time, plants selected from these crop and weed species and also winter barley (Hordeum vulgare), bermudagrass (Cynodon dactylon), downy bromegrass (Bromus tectorum), canarygrass (Phalaris minor), cocklebur (common cocklebur, Xanthium strumarium), woolly cupgrass (Eriochloa villosa), deadnettle (henbit deadnettle, Lamium amplexicaule), green foxtail (Setaria viridis), goosegrass (Eleusine indica), surinam grass (Brachiaria decumbens), windgrass (Apera spica-venti), chickweed (common chickweed, Stellaria media), kochia (Kochia scoparia), and wild oat (Avena fatua), were planted in pots containing Redi-Earth® planting medium (Scotts Company, 14111 Scottslawn Road, Marysville, Ohio 43041) comprising spaghnum peat moss, vermiculite, wetting agent and starter nutrients and treated with postemergence applications of test chemicals formulated in the same manner. Plants ranged in height from 2 to 18 cm (1- to 4-leaf stage) for postemergence treatments. Treated plants and controls were maintained in a greenhouse for 13 to 15 days, after which time all species were compared to controls and visually evaluated. Plant response ratings, summarized in Table C, are based on a scale of 0 to 100 where 0 is no effect and 100 is complete control. A dash (-) response means no test result.

[2] = system: large (Lg) crabgrass (Digitaria sanguinalis); assay: as above; conditions: Postemergence; for Plant response rating, Crabgrass, Large: scale 0 to 100
Excerpt: as §1, §2

[3] = system: morningglory (Ipomoea coccinea); assay: as above; conditions: Postemergence; for Plant response rating, Morningglory: scale 0 to 100
Excerpt: as §1, §2

[4] = system: ragweed (common ragweed, Ambrosia elatior); assay: as above; conditions: Postemergence; for Plant response rating, Ragweed: scale 0 to 100
Excerpt: as §1, §2

[5] = system: velvetleaf (Abutilon theophrasti); assay: as above; conditions: Postemergence; for Plant response rating, Velvetleaf: scale 0 to 100
Excerpt: as §1, §2

[6] = system: barnyardgrass (Echinochloa crus-galli); assay: Test A pre-/postemergence greenhouse herbicide test, visual injury rating 0-100; conditions: 1000 g ai/ha
How it was run: (§3)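 Greenhouse plants received compound either as directed soil spray at planting or as postemergence spray at the one- to two-leaf stage (2–10 cm). Evaluated after about 10 days by visual comparison with untreated controls.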

[7] = system: corn (Zea mays); assay: as above; conditions: 1000 g ai/ha
How it was run: as §3

[8] = system: giant foxtail (Setaria faberii); assay: as above; conditions: 1000 g ai/ha
How it was run: as §3

[9] = system: large (Lg) crabgrass (Digitaria sanguinalis); assay: as above; conditions: 1000 g ai/ha
How it was run: as §3

[10] = system: morningglory (Ipomoea spp.); assay: as above; conditions: 1000 g ai/ha
How it was run: as §3

[11] = system: pigweed (Amaranthus retroflexus); assay: as above; conditions: 1000 g ai/ha
How it was run: as §3

[12] = system: velvetleaf (Abutilon theophrasti); assay: as above; conditions: 1000 g ai/ha
How it was run: as §3

[13] = system: wheat (Triticum aestivum); assay: as above; conditions: 1000 g ai/ha
How it was run: as §3

| Compound | Plant response rating (0 to 100), Blackgrass ([1]; 62 g ai/ha) | Plant response rating, Blackgrass ([1]; 250 g ai/ha) | Plant response rating, Blackgrass ([1]; 500 g ai/ha) | Plant response rating (0 to 100), Crabgrass, Large ([2]; 62 g ai/ha) | Plant response rating (0 to 100), Crabgrass, Large ([2]; 125 g ai/ha) | Plant response rating, Crabgrass, Large ([2]; 250 g ai/ha) | Plant response rating, Crabgrass, Large ([2]; 500 g ai/ha) | Plant response rating (0 to 100), Ragweed ([4]; 62 g ai/ha) | Plant response rating (0 to 100), Ragweed ([4]; 125 g ai/ha) | Plant response rating, Ragweed ([4]; 250 g ai/ha) | Plant response rating, Ragweed ([4]; 500 g ai/ha) | Plant response rating (0 to 100), Velvetleaf ([5]; 62 g ai/ha) | Plant response rating (0 to 100), Velvetleaf ([5]; 125 g ai/ha) | Plant response rating, Velvetleaf ([5]; 250 g ai/ha) | Plant response rating, Velvetleaf ([5]; 500 g ai/ha) | Plant response rating (0 to 100 scale), Barnyardgrass ([6]; Postemergence) | Plant response rating (0 to 100 scale), Barnyardgrass ([6]; Preemergence) | Plant response rating (0 to 100 scale), Corn ([7]; Postemergence) | Plant response rating (0 to 100 scale), Corn ([7]; Preemergence) | Plant response rating (0 to 100 scale), Foxtail, Giant ([8]; Postemergence) | also measured |
| --- | --- | --- | --- | --- | --- | --- | --- | --- | --- | --- | --- | --- | --- | --- | --- | --- | --- | --- | --- | --- | --- |
| Cn1cc(C(=O)c2cccs2)c(-c2cc(Cl)cc(Cl)c2)n1 [Compound 17] | 0 | 0 | 5 | 0 | 5 | 10 | 15 | 0 | 10 | 10 | 10 | 80 | 80 | 80 | 80 | – | – | – | – | – | Plant response rating, Blackgrass ([1]; 125 g ai/ha): 0; Plant response rating (0 to 100), Morningglory ([3]; 62 g ai/ha): 5; Plant response rating (0 to 100), Morningglory ([3]; 125 g ai/ha): 5; Plant response rating, Morningglory ([3]; 250 g ai/ha): 10; Plant response rating, Morningglory ([3]; 500 g ai/ha): 15 |
| CCn1cc(C(=O)c2cccs2)c(-c2cc(Cl)cc(Cl)c2)n1 [Compound 18] | 0 | 0 | 0 | 5 | 5 | 15 | 20 | – | 10 | 15 | 25 | 50 | 65 | 70 | 80 | – | – | – | – | – | Plant response rating, Blackgrass ([1]; 125 g ai/ha): 0; Plant response rating (0 to 100), Morningglory ([3]; 62 g ai/ha): 5; Plant response rating (0 to 100), Morningglory ([3]; 125 g ai/ha): 10; Plant response rating, Morningglory ([3]; 250 g ai/ha): 20; Plant response rating, Morningglory ([3]; 500 g ai/ha): 45 |
| Cn1cc(C(=O)c2ccccc2)c(-c2cc(Br)cc(Br)c2)n1 [Compound 53] | 0 | 0 | 0 | 0 | 0 | 0 | 0 | 10 | 10 | 10 | 10 | 60 | 75 | 90 | – | 0 | 0 | 0 | 0 | 0 | Plant response rating (0 to 100 scale), Foxtail, Giant ([8]; Preemergence): 0; Plant response rating (0 to 100 scale), Crabgrass, Large ([9]; Postemergence): 0; Plant response rating (0 to 100 scale), Crabgrass, Large ([9]; Preemergence): 0; Plant response rating (0 to 100 scale), Morningglory ([10]; Postemergence): 0; Plant response rating (0 to 100 scale), Morningglory ([10]; Preemergence): 0; Plant response rating (0 to 100 scale), Pigweed ([11]; Postemergence): 100; Plant response rating (0 to 100 scale), Pigweed ([11]; Preemergence): 90; Plant response rating (0 to 100 scale), Velvetleaf ([12]; Postemergence): 90; Plant response rating (0 to 100 scale), Velvetleaf ([12]; Preemergence): 60; Plant response rating (0 to 100 scale), Wheat ([13]; Postemergence): 0; Plant response rating (0 to 100 scale), Wheat ([13]; Preemergence): 0; Plant response rating (0 to 100), Blackgrass ([1]; 125 g ai/ha): 0 |
| Fc1ccccc1NN=C(c1ccccc1)c1c[nH]nc1-c1cc(Cl)cc(Cl)c1 [Compound 57] | 0 | 0 | – | 0 | 0 | 5 | – | 15 | 65 | 70 | – | 70 | 80 | 80 | – | 0 | 0 | 0 | 0 | 0 | Plant response rating (0 to 100 scale), Foxtail, Giant ([8]; Preemergence): 0; Plant response rating (0 to 100 scale), Crabgrass, Large ([9]; Postemergence): 0; Plant response rating (0 to 100 scale), Crabgrass, Large ([9]; Preemergence): 0; Plant response rating (0 to 100 scale), Morningglory ([10]; Postemergence): 0; Plant response rating (0 to 100 scale), Morningglory ([10]; Preemergence): 0; Plant response rating (0 to 100 scale), Pigweed ([11]; Postemergence): 90; Plant response rating (0 to 100 scale), Pigweed ([11]; Preemergence): 90; Plant response rating (0 to 100 scale), Velvetleaf ([12]; Postemergence): 100; Plant response rating (0 to 100 scale), Velvetleaf ([12]; Preemergence): 80; Plant response rating (0 to 100 scale), Wheat ([13]; Postemergence): 0; Plant response rating (0 to 100 scale), Wheat ([13]; Preemergence): 0; Plant response rating (0 to 100), Blackgrass ([1]; 31 g ai/ha): 0; Plant response rating (0 to 100), Blackgrass ([1]; 125 g ai/ha): 0; Plant response rating (0 to 100), Crabgrass, Large ([2]; 31 g ai/ha): 0 |
| Clc1cc(Cl)cc(-c2n[nH]cc2C(=NNc2ccccc2Cl)c2ccccc2)c1 [Compound 66] | 0 | 0 | 0 | 0 | 0 | 0 | 0 | 10 | 80 | – | 95 | 55 | 55 | 80 | 90 | 0 | 0 | 0 | 0 | 0 | Plant response rating (0 to 100 scale), Foxtail, Giant ([8]; Preemergence): 0; Plant response rating (0 to 100 scale), Crabgrass, Large ([9]; Postemergence): 0; Plant response rating (0 to 100 scale), Crabgrass, Large ([9]; Preemergence): 0; Plant response rating (0 to 100 scale), Morningglory ([10]; Postemergence): 0; Plant response rating (0 to 100 scale), Morningglory ([10]; Preemergence): 0; Plant response rating (0 to 100 scale), Pigweed ([11]; Postemergence): 80; Plant response rating (0 to 100 scale), Pigweed ([11]; Preemergence): 80; Plant response rating (0 to 100 scale), Velvetleaf ([12]; Postemergence): 90; Plant response rating (0 to 100 scale), Velvetleaf ([12]; Preemergence): 80; Plant response rating (0 to 100 scale), Wheat ([13]; Postemergence): 0; Plant response rating (0 to 100 scale), Wheat ([13]; Preemergence): 0; Plant response rating (0 to 100), Blackgrass ([1]; 125 g ai/ha): 0 |

Source: patent publication US10167262B2, “Herbicidal substituted 3-arylpyrazoles” (FMC CORPORATION, priority 2014, dated 2019)
